Experiments:
[1] = biological target: T1, Mitogen-activated protein kinase kinase kinase 13 (Homo sapiens) (UniProt O43283); test: Inhibition of LZK (unknown origin) assessed as residual activity at 100 nM by KINOMEscan analysis relative to control
T1 sequence (whole entry): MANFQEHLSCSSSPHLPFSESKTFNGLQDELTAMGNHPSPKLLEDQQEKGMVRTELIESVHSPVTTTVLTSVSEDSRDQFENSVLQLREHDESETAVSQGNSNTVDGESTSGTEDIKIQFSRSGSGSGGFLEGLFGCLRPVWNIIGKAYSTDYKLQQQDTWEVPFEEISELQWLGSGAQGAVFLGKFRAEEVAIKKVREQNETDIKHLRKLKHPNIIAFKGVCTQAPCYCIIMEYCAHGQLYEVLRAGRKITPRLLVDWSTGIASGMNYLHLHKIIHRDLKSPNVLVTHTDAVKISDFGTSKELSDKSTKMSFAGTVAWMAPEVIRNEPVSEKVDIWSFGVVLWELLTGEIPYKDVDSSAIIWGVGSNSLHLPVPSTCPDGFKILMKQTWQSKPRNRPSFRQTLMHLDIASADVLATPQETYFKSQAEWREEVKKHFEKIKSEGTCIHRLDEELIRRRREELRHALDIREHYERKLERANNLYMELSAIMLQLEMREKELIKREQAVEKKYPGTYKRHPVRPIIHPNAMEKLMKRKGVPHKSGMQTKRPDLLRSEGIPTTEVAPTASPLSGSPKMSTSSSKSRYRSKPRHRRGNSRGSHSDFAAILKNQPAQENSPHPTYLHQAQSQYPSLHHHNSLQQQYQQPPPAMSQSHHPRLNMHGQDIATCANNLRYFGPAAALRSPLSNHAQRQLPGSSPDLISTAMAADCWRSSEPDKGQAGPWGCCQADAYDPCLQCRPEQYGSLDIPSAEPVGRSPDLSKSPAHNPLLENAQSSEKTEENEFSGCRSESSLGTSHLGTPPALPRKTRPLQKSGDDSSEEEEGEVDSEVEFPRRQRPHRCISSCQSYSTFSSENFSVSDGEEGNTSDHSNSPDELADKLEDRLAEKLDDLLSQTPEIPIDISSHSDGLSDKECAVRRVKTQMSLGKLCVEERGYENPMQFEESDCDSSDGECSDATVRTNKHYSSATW

[2] = biological target: Receptor tyrosine-protein kinase erbB-2 (Homo sapiens) (UniProt P04626); test: Inhibition of ERBB2 (unknown origin) assessed as residual activity at 100 nM by KINOMEscan analysis relative to control
[3] = biological target: T2, Serine/threonine-protein kinase haspin (Homo sapiens) (UniProt Q8TF76); test: Inhibition of HASPIN (unknown origin) assessed as residual activity at 100 nM by KINOMEscan analysis relative to control
T2 sequence (whole entry): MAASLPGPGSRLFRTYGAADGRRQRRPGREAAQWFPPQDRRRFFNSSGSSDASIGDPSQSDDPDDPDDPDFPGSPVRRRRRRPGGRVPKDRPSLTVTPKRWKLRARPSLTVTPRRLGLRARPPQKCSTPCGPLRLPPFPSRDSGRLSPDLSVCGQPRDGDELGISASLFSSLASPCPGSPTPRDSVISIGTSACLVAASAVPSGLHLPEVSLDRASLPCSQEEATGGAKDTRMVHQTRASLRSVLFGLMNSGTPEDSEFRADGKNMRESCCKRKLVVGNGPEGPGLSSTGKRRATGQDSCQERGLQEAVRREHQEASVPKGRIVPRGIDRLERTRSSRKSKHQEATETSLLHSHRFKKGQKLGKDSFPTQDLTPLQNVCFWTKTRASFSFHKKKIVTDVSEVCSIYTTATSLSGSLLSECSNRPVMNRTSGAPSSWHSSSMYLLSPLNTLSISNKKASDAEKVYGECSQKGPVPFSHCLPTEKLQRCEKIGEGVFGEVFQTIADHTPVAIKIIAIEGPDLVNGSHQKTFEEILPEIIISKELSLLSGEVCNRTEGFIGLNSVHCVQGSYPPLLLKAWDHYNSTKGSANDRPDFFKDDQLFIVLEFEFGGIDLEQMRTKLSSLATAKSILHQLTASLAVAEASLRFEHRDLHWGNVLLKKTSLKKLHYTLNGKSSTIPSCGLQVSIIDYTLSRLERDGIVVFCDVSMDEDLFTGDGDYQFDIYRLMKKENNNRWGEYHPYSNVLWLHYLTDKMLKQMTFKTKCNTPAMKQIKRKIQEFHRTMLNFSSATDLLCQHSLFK

[4] = biological target: Vascular endothelial growth factor receptor 2 (Homo sapiens) (UniProt P35968); test: Inhibition of VEGFR2 (unknown origin) assessed as residual activity at 100 nM by KINOMEscan analysis relative to control
[5] = biological target: Mitogen-activated protein kinase 6 (Homo sapiens) (UniProt Q16659); test: Inhibition of ERK3 (unknown origin) assessed as residual activity at 100 nM by KINOMEscan analysis relative to control
[6] = biological target: Dual specificity testis-specific protein kinase 1 (Homo sapiens) (UniProt Q15569); test: Inhibition of TESK1 (unknown origin) assessed as residual activity at 100 nM by KINOMEscan analysis relative to control
Chain of Dual specificity testis-specific protein kinase 1 (Homo sapiens) (Q15569 whole entry, looked up): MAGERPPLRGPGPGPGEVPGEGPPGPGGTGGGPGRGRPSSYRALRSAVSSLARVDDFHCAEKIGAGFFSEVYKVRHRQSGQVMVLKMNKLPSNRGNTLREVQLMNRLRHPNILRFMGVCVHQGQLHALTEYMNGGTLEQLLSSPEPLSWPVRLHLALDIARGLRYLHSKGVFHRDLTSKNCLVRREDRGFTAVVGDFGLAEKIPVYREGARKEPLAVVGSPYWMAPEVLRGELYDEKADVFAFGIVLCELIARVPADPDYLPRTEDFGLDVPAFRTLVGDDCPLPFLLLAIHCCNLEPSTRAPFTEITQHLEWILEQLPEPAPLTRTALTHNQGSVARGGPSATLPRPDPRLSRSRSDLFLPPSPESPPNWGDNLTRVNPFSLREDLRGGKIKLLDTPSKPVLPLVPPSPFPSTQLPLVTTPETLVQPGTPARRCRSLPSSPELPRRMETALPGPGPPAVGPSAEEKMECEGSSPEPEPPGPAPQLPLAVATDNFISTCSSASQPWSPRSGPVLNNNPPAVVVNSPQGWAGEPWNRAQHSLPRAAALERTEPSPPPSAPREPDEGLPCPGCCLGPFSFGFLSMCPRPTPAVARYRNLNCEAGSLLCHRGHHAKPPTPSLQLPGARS

Chain of Vascular endothelial growth factor receptor 2 (Homo sapiens) (P35968 whole entry): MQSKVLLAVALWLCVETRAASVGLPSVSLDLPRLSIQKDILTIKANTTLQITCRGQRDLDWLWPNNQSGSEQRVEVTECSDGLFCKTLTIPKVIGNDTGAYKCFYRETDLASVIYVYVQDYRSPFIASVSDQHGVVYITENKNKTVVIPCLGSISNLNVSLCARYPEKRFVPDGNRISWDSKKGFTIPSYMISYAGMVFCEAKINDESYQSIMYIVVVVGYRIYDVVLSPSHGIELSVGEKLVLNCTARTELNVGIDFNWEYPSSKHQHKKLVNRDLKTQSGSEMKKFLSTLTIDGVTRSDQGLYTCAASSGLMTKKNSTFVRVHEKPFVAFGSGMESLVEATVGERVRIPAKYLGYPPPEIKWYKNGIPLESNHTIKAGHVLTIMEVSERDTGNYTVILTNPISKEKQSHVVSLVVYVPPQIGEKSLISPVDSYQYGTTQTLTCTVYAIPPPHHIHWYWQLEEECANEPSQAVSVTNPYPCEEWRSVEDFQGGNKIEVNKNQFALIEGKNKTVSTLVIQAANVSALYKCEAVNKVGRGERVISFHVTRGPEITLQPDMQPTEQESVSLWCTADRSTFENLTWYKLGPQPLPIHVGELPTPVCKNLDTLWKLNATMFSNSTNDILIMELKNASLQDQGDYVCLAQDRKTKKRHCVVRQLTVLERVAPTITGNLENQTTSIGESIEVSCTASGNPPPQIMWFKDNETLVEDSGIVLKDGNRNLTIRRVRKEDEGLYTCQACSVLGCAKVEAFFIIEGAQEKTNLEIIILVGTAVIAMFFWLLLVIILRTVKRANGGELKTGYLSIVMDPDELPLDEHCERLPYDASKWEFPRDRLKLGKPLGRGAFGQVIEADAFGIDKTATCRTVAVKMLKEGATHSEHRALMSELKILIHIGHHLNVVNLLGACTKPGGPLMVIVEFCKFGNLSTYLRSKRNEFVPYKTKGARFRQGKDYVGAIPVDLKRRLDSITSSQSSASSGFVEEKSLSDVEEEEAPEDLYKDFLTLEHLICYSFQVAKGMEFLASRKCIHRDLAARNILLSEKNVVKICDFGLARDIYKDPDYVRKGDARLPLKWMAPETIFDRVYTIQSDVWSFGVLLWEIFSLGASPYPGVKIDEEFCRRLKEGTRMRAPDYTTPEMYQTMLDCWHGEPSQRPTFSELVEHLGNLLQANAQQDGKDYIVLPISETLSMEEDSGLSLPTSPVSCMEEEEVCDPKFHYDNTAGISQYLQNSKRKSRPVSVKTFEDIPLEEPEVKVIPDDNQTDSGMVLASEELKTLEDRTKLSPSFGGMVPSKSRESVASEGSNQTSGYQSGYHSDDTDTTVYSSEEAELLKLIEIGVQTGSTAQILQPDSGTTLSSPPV
Chain of Receptor tyrosine-protein kinase erbB-2 (Homo sapiens) (P04626 whole entry): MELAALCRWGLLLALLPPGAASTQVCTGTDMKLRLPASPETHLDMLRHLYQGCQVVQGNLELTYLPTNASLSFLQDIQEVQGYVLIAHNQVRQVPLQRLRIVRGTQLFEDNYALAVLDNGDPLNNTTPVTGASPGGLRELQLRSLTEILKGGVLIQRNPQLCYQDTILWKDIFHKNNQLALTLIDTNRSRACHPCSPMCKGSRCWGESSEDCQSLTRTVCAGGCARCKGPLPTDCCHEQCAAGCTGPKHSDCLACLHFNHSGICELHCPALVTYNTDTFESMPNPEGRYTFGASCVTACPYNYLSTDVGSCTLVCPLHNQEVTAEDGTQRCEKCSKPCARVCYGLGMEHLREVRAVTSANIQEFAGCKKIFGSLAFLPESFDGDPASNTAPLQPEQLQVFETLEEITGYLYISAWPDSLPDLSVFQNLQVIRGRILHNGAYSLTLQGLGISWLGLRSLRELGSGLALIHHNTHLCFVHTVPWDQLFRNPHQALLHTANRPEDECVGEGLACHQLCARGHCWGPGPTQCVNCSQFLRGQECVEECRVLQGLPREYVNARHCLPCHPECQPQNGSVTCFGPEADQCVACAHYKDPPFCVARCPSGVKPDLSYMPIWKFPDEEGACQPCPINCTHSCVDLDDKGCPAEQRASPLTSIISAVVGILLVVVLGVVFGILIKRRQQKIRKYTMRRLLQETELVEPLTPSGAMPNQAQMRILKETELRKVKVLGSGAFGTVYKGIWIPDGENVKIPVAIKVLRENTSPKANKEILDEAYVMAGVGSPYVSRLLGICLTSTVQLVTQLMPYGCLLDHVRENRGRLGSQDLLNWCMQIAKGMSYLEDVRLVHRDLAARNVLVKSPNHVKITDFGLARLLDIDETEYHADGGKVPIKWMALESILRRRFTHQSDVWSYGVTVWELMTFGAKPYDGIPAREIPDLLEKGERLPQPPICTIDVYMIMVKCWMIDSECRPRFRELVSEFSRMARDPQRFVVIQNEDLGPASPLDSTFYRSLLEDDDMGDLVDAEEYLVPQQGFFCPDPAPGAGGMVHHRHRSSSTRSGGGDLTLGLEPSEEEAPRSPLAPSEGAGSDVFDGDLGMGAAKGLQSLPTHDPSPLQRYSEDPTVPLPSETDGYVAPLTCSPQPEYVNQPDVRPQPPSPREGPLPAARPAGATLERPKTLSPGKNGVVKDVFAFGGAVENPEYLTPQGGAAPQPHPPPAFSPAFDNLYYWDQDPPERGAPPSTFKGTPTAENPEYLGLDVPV
Chain of Mitogen-activated protein kinase 6 (Homo sapiens) (Q16659 whole entry): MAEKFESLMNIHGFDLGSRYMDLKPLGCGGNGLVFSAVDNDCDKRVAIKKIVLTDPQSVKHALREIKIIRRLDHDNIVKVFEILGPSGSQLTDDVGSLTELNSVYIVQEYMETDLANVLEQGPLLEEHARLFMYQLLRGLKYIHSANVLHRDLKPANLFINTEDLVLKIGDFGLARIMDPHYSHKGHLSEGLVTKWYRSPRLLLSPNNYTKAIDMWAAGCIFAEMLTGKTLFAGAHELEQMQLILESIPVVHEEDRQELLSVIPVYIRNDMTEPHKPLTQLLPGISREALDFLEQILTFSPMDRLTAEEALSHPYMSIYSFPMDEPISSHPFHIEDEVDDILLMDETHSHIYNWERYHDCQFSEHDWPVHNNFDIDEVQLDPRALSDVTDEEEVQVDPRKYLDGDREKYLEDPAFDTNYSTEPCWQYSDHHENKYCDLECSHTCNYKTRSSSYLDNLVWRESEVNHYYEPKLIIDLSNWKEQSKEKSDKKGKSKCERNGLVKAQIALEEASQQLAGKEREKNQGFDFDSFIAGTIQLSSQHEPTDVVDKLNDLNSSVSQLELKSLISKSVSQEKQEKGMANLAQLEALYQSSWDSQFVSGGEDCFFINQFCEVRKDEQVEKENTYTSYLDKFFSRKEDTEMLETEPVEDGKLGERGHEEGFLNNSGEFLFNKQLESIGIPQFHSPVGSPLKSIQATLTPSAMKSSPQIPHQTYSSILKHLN

For `COc1cc2ncnc(N[C@H](C)c3cccc4ccccc34)c2cc1OC`, the Activity [1] was 82%, the Activity [2] was 84% and the Activity [3] was 95%. The Activity [4] was 75%, the Activity [5] was 40% and the Activity [6] was 73%.

From ChEMBL document CHEMBL5678818, “Discovery of potent SOS1 inhibitors that block RAS activation via disruption of the RAS-SOS1 interaction” (Proc Natl Acad Sci U S A, 2019)
